These are literature values, as cited in patent US11439715B2, “Compositions and methods to detect GLUA1 in brain and to identify the presence of GLUA1-mediated post-traumatic stress disorder and other neurological disorders” (Neurovation Labs, Inc., priority 2017, dated 2022).

Entries after “also recorded” stand apart in the source; their conditions may differ. Like-named read-outs stand apart in the source and are kept apart here.

For data set [1], the system named is GluA2. As to conditions: stressed and unstressed rats, measured three weeks after the trauma.
The subject of data set [2] is Stress-Enhanced Fear Learning (SEFL), a rodent model of PTSD.
Data set [3] concerns GluN1. Particulars: stressed and unstressed rats, measured three weeks after the trauma.
The test system of data set [4] is GluA1. As to conditions: stressed rats, metyrapone given before the trauma, measured three weeks after the trauma.

For the molecule `CC(C)(C(=O)c1cccnc1)c1cccnc1` [Metyrapone], in data set [1], the “GluA2 levels in the BLA (GluA2:GAPDH optical density ratio)” value is on record as “Neither stress nor metyrapone had an effect on GluA2 levels”. In data set [2] (metyrapone given before the trauma), the “SEFL (stress-enhanced fear learning)” value is “effectively preventing SEFL”. Also, in data set [3], the “GluN1 levels in the BLA (GluN1:GAPDH optical density ratio)” value is on record as “Neither stress nor metyrapone had an effect on GluN1 levels”. The “GluA1 protein levels in the BLA (GluA1:GAPDH optical density ratio)” value was “prevented GluA1 increases” in data set [4]; “significantly higher in stressed rats than in unstressed rats and metyrapone-treated rats” in data set [4] (listed as metyrapone).

With `Br.C[N+](C)(C)CCCCCNCC12CC3CC(CC(C3)C1)C2.[Br-]` [IEM-1460, N,N,H,-Trimethyl-5-[(tricyclo[3.3.1.13,7]dec-1-ylmethyl)amino]-1-pentanaminiumbromide hydrobromide], in data set [2] (intra-BLA infusion post-trauma, compared with stressed controls (ACSF or MSO), hydrobromide), the “percent freezing in Context B on Day 3 (sensitized fear, SEFL)” value was “significantly reduces freezing in Context B; also recorded: attenuate SEFL”.
